One may read the Vd as the apparent volume that relates the amount in the body to the concentration in plasma or blood. The low end stands for confinement near the circulation, the high end for extensive tissue distribution. Usually clearance stands for a measure of how efficiently the substance is removed, as volume per time. Lower therefore signals a low capacity for elimination. Broadly, the bioavailability is dose-corrected exposure relative to a reference, in per cent. Low readings indicate little systemic uptake, high ones much systemic uptake. The term Cmax denotes the maximum level reached in the sampled fluid or tissue. As usually defined, the half-life is how long it takes for the measured level to halve. Low readings indicate rapid decline, high ones slow decline.

Data set [1] in a line: in vivo. As to conditions: rat, iv.
Data set [2] can be described thus: in vivo. To be noted: rat, iv. This is another data set of the same source.
A short description of data set [3]: in vivo. As to conditions: rat, po, 4.2 mg/kg.
A short description of data set [4]: in vivo. As to conditions: rat, iv. This is another data set of the same source.
Data set [5] in a line: in vivo. As to conditions: rat, iv. The source holds these as a separate data set.

Consider `Cc1ccccc1CN(c1ccc(C#N)c(Cl)c1)[C@H]1CCN(S(C)(=O)=O)C1`, for which the Vd in the data set “in vivo [1]” stood at 12 L/kg. Besides, the clearance in the data set “in vivo [2]” was 98 mL/min/kg. This molecule also showed a bioavailability in the data set “in vivo [3]” of 100%. In addition, in the data set “in vivo [4]”, the Cmax was 221 ng/mL. Also, in “in vivo [5]”, the half-life is 1.6 h.
